Measured values reported in patent US10898510B2, “Sulphated hyaluronic acids functionalised with dopamine” (priority 2016, dated 2021).

Test system: Staphylococcus aureus
Experiment: In vitro inhibition of S. aureus bacterial growth, titanium cylinder functionalized with HAS2-DOPA or HA-DOPA and Gentamicin
Type: cell-based
Conditions: Daptomycin at the same concentrations instead of Gentamicin
Method: The following were prepared:
a solution of HA-DOPA (23%, Example 12) in 0.1 M PBS, pH=8; […]
Identical treatment was applied to the other two titanium cylinders, of equal size, which were sprayed first with the HA-DOPA derivative solution and then with the Gentamicin solution, by the procedures described above.
Finally, two other titanium cylinders, of identical size, were sprayed with the PBS solution and then with the Gentamicin solution, by the procedures described above.
Each cylinder (total: 6) was then immersed once in MQ water for 5 seconds, left to air-dry for 15 minutes and inserted in a culture broth (Buffered Peptone Water: peptone 10.0 g/L, sodium chloride 5.0 g/L, anhydrous disodium phosphate 3.6 g/L, potassium phosphate 1.5 g/L, Biokar Diagnostics) inoculated with 600,000,000 CFU/mL of Staphylococcus aureus. The broth was incubated at 37° C., and at pre-set times (6 h, 12 h, 24 h, 48 h, 144 h) 1 mL of supernatant was taken up and diluted scalarly 1:10 (according to the bacterial growth), with sterile saline solution, for plate seeding (PCA—Plate Count Agar: tryptone 5.0 g/L, yeast extract 2.5 g/L, glucose 1.0 g/L, bacteriological agar 12.0 g/L. Manufactured by Biokar Diagnostics). The CFU/mL count was then conducted.
The percentage bacterial growth inhibition data over time compared with the initial inoculum of 600 million CFU/mL of S. aureus are set out in FIG. 4.

## CCCCCCCCCC(=O)N[C@@H](Cc1c[nH]c2ccccc12)C(=O)N[C@H](CC(N)=O)C(=O)N[C@@H](CC(=O)O)C(=O)N[C@@H]1C(=O)NCC(=O)N[C@@H](CCCN)C(=O)N[C@@H](CC(=O)O)C(=O)N[C@H](C)C(=O)N[C@@H](CC(=O)O)C(=O)NCC(=O)N[C@H](CO)C(=O)N[C@@H]([C@H](C)CC(=O)O)C(=O)N[C@@H](CC(=O)c2ccccc2N)C(=O)O[C@@H]1C [Daptomycin]
  activity profile in similar experiment with Daptomycin: identical activity profile
